ChEMBL document CHEMBL5113388 (Bioorg Med Chem Lett, 2022)
Blank lines part the entries; values can stand above or below the compound they belong to.

Legend:
BaF3 = test: Antiproliferative activity against mouse BaF3 cells harboring del19/T790M/C797S mutant assessed as inhibition of cell proliferation; format: functional, cell-based
PC-9 [1] = test: Antiproliferative activity against human PC-9 cells harboring EGFR del19/T790M/C797S mutant assessed as inhibition of cell proliferation; format: functional, cell-based
PC-9 [2] = test: cells; settings: Homo sapiens, PC-9, 72 h
Homo sapiens [3] = organism: Homo sapiens; test: Selectivity ratio of IC50 for inhibition of wild type EGFR (unknown origin) to IC50 for inhibition of EGFR L858R/T790M mutant (unknown origin)
Homo sapiens [4] = organism: Homo sapiens; test: Selectivity ratio of IC50 for inhibition of wild type EGFR (unknown origin) to IC50 for inhibition of EGFR del19/T790M/C797S mutant (unknown origin)
Homo sapiens [5] = organism: Homo sapiens; test: Selectivity ratio of IC50 for inhibition of wild type EGFR (unknown origin) to IC50 for inhibition of EGFR L858R mutant (unknown origin)
[6] = target: Epidermal growth factor receptor (Homo sapiens, UniProt P00533, C797S/EX19DEL/T790M); test: Inhibition of EGFR del19/T790M/C797S mutant (unknown origin)
Homo sapiens [7] = organism: Homo sapiens; test: Selectivity ratio of IC50 for inhibition of wild type EGFR (unknown origin) to IC50 for inhibition of EGFR L858R/T790M/C797S mutant (unknown origin)
[8] = Clearance in CD-1 mouse at 2 mg/kg, iv; format: ADME, organism-based; settings: in vivo
[9] = AUC (0 to last) in CD-1 mouse at 10 mg/kg, po; format: ADME, organism-based; design: time 0 - last, dose 10 mg/kg, route po; settings: in vivo
[10] = AUC (0 to last) in CD-1 mouse at 2 mg/kg, iv; format: ADME, organism-based; design: time 0 - last, dose 2 mg/kg, route iv; settings: in vivo
[11] = target: Epidermal growth factor receptor (Homo sapiens, UniProt P00533, L858R); test: Inhibition of EGFR L858R mutant (unknown origin)
Chain of Epidermal growth factor receptor (Homo sapiens, UniProt P00533, L858R) (P00533 25-1210 L858R limits assumed): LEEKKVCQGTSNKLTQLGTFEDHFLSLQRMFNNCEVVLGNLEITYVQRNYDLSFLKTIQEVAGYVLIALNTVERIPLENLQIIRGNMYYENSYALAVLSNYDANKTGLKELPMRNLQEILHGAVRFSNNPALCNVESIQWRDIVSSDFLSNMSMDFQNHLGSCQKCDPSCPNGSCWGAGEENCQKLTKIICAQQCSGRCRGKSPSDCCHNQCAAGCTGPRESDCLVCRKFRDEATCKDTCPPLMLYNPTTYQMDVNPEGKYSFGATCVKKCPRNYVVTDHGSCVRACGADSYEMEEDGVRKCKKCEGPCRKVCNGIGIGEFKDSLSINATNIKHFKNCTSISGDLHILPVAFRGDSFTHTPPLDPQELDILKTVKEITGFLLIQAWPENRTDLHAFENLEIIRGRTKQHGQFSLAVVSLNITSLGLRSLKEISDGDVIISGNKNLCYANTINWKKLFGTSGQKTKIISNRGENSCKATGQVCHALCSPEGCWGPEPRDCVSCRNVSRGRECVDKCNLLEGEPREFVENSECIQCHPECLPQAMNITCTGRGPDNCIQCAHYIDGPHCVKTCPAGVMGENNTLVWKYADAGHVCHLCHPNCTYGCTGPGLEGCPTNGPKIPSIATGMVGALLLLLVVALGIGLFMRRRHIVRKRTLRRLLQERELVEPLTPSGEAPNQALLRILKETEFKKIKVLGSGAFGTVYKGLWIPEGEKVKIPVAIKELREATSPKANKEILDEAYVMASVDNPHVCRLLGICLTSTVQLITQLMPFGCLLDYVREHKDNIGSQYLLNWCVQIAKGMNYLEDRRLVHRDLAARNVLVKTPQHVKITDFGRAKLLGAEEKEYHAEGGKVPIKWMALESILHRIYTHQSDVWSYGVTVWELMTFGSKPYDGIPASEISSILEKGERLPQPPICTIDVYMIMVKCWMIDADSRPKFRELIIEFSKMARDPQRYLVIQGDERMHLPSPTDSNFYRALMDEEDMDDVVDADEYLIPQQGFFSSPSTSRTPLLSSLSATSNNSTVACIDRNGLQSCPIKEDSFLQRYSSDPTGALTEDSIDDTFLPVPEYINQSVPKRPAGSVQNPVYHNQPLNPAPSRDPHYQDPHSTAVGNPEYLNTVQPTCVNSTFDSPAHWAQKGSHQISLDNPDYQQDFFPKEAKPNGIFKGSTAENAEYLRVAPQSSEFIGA

[12] = target: Epidermal growth factor receptor (Homo sapiens, UniProt P00533, EX19DEL/T790M); test: Inhibition of EGFR del19/T790M mutant (unknown origin)
Chain of Epidermal growth factor receptor (Homo sapiens, UniProt P00533, EX19DEL/T790M) (P00533 whole entry, looked up, stated change not applied): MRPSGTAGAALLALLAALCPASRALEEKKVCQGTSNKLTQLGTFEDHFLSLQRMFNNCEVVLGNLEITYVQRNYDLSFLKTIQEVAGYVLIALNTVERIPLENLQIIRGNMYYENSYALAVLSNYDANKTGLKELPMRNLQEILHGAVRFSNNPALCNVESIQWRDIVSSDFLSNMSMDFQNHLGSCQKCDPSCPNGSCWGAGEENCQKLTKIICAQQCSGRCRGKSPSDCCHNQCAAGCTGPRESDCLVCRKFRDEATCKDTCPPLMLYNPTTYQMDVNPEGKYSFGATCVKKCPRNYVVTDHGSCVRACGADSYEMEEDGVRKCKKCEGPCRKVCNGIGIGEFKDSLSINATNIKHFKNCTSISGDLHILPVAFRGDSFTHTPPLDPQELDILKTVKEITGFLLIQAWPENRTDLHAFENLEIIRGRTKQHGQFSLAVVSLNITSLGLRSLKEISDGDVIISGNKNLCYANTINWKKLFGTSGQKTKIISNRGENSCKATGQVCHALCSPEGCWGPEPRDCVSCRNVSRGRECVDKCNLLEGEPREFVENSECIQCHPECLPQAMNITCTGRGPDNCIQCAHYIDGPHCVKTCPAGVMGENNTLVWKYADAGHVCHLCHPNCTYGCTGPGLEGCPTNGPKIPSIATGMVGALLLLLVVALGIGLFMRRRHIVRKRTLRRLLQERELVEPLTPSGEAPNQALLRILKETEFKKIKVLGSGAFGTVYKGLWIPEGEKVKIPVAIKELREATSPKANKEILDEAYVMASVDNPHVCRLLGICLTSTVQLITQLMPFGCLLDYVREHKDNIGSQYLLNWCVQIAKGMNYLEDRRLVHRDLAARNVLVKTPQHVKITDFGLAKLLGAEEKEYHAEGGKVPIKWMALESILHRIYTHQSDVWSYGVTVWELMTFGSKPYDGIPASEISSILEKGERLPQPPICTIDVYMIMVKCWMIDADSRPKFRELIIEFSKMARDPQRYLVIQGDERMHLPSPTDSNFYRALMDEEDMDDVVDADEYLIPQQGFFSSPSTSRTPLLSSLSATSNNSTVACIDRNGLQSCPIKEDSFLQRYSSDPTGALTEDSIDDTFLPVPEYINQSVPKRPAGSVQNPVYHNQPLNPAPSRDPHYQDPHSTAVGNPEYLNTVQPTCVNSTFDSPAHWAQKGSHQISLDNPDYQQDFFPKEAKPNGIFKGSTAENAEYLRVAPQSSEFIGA

[13] = target: Epidermal growth factor receptor (Homo sapiens, UniProt P00533); test: Inhibition of wild type EGFR (unknown origin)
Chain of Epidermal growth factor receptor (Homo sapiens, UniProt P00533) (P00533 whole entry): as the sequence (P00533 whole entry, looked up, stated change not applied) above

[14] = Tmax in CD-1 mouse at 10 mg/kg, po; format: ADME, organism-based; settings: in vivo
Homo sapiens [15] = organism: Homo sapiens; test: Selectivity ratio of IC50 for inhibition of wild type EGFR (unknown origin) to IC50 for inhibition of EGFR del19/T790M mutant (unknown origin)
[16] = Volume of distribution at steady state in CD-1 mouse at 2 mg/kg, iv; format: ADME, organism-based; settings: in vivo, read-out: Vdss
[17] = Oral bioavailability in CD-1 mouse at 10 mg/kg; format: ADME, organism-based; settings: in vivo
[18] = target: Epidermal growth factor receptor (Homo sapiens, UniProt P00533, L858R/T790M); test: Inhibition of EGFR L858R/T790M mutant (unknown origin)
Chain of Epidermal growth factor receptor (Homo sapiens, UniProt P00533, L858R/T790M) (P00533 25-1210 T790M/L858R limits assumed): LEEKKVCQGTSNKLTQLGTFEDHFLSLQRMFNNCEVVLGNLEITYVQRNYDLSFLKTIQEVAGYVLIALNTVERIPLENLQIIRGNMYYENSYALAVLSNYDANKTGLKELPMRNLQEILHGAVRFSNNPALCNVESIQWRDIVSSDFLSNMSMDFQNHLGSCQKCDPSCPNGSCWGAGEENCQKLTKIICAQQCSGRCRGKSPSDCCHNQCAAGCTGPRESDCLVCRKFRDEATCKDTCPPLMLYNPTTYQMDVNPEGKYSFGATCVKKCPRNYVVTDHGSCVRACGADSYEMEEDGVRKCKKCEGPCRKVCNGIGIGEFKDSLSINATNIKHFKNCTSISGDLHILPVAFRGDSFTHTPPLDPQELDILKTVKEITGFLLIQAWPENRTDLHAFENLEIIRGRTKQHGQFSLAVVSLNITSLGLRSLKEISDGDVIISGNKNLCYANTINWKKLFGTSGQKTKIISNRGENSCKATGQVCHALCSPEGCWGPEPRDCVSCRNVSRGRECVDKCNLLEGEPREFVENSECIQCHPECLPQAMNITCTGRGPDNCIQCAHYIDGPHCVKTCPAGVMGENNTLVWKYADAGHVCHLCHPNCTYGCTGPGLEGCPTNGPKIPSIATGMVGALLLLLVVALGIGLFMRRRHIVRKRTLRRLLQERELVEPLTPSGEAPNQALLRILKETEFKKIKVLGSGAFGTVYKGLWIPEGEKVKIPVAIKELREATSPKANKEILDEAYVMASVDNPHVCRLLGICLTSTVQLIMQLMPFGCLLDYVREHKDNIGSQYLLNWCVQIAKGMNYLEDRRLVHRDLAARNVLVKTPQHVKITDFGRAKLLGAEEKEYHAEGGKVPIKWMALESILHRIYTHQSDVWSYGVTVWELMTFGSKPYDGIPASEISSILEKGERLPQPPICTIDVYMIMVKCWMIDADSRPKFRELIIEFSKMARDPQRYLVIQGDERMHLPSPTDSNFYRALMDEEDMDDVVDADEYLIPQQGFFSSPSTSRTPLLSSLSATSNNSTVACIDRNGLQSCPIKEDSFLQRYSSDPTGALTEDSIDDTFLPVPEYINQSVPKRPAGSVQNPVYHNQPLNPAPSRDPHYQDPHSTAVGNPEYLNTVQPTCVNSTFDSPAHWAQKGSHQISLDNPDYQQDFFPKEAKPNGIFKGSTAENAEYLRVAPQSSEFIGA

[19] = Half-life in CD-1 mouse at 2 mg/kg, iv; format: ADME, organism-based; settings: in vivo
[20] = target: Epidermal growth factor receptor (Homo sapiens, UniProt P00533, EX19DEL); test: Inhibition of EGFR del19 mutant (unknown origin)
[21] = target: Epidermal growth factor receptor (Homo sapiens, UniProt P00533, C797S/L858R/T790M); test: Inhibition of EGFR L858R/T790M/C797S mutant (unknown origin)
Homo sapiens [22] = organism: Homo sapiens; test: Selectivity ratio of IC50 for inhibition of wild type EGFR (unknown origin) to IC50 for inhibition of EGFR del19 mutant (unknown origin)
[23] = Cmax in CD-1 mouse at 10 mg/kg, po; format: ADME, organism-based; design: dose 10 mg/kg, route po; settings: in vivo

Compound: COc1cc(N2CCC(N3CCN(C)CC3)CC2)c(-c2cnn(C)c2)cc1Nc1ncc(Br)c(Nc2cc(F)c(C)c(C)c2P(C)(C)=O)n1
IC50 (BaF3): > 1000 nM
IC50 (PC-9 [1]): > 1000 nM

Compound: COc1cc(N2CCC(N3CCN(C)CC3)CC2)c(-c2cnn(C3CC3)c2)cc1Nc1ncc(Br)c(Nc2ccc(C)c(C)c2P(C)(C)=O)n1
IC50 (BaF3): > 1000 nM
IC50 (PC-9 [1]): > 1000 nM

Compound: COc1cc(N2CCC(N3CCN(CCS(C)(=O)=O)CC3)CC2)c(-c2cnn(C)c2)cc1Nc1ncc(Br)c(Nc2ccc(C)c(C)c2P(C)(C)=O)n1
IC50 (BaF3): > 1000 nM
IC50 (PC-9 [1]): > 1000 nM

Compound: COc1cc(N2CCC(N3CCN(C)CC3)CC2)ccc1Nc1ncc(Br)c(Nc2ccc3c(ccc4ccccc43)c2P(C)(C)=O)n1
IC50 (BaF3): > 1000 nM
IC50 (PC-9 [1]): > 1000 nM

Compound: COc1cc(N2CCC(N3CCN(C)CC3)CC2)ccc1Nc1ncc(Br)c(Nc2cc3c4c(cccc4c2P(C)(C)=O)CC3)n1
IC50 (BaF3): > 1000 nM
IC50 (PC-9 [1]): > 1000 nM

Compound: CCc1cc(Nc2ncc(Br)c(Nc3ccc4nccnc4c3P(C)(C)=O)n2)c(OC)cc1N1CCC(N2CCN(CCSC)CC2)CC1
IC50 (BaF3): 3.87 nM
IC50 (PC-9 [1]): 148 nM

Compound: CCc1cc(Nc2ncc(Br)c(Nc3ccc4nccnc4c3P(C)(C)=O)n2)c(OC)cc1N1CCC(N(C)CCS(C)(=O)=O)CC1
IC50 (PC-9 [1]): 127 nM

Compound: CCc1cc(Nc2ncc(Br)c(Nc3ccc4nccnc4c3P(C)(C)=O)n2)c(OC)cc1N1CCC(N2CCN(CCS(C)(=O)=O)CC2)CC1
Ratio IC50 (Homo sapiens [3]): 43
Ratio IC50 (Homo sapiens [4]): 54
Ratio IC50 (Homo sapiens [5]): 3.4
IC50 (BaF3): 1.53 nM
IC50 [6]: 0.2 nM
Ratio IC50 (Homo sapiens [7]): 41
clearance [8]: 2.4 mL/min/kg
AUC(0-t) [9]: 33800 ng·h/mL
AUClast [10]: 13820 ng·h/mL
IC50 [11]: 3.1 nM
IC50 [12]: 0.1 nM
IC50 (PC-9 [1]): 66.7 nM
IC50 [13]: 10.4 nM
Tmax [14]: 0.5 h
Ratio IC50 (Homo sapiens [15]): 81
Vd [16]: 0.7 L/kg
bioavailability [17]: 48.9%
IC50 [18]: 0.2 nM
half-life [19]: 3.3 h
IC50 [20]: 0.9 nM
IC50 [21]: 0.3 nM
Ratio IC50 (Homo sapiens [22]): 11
Cmax [23]: 6600 ng/mL

Compound: COc1cc(N2CCC(N3CCN(C)CC3)CC2)ccc1Nc1ncc(Br)c(Nc2cc3c4c(cccc4c2P(C)(C)=O)COC3)n1
IC50 (BaF3): > 1000 nM
IC50 (PC-9 [1]): > 1000 nM

The next lines start with the values.

IC50 (BaF3): 3.6 nM
IC50 (PC-9 [1]): 67.4 nM
Compound: COc1cc(N2CCC(N3CCN(C)CC3)CC2)c(-c2cnn(C)c2)cc1Nc1ncc(Br)c(Nc2cc(C)c(C)c(C)c2P(C)(C)=O)n1

IC50 (BaF3): > 1000 nM
IC50 (PC-9 [1]): > 1000 nM
Compound: CCc1cc(Nc2ncc(Br)c(Nc3cc4c5c(cccc5c3P(C)(C)=O)CC4)n2)c(OC)cc1N1CCC(N2CCN(C)CC2)CC1

IC50 (BaF3): 37.4 nM
IC50 (PC-9 [1]): 217 nM
Compound: CCc1cc(Nc2ncc(Br)c(Nc3ccc4nc5c(nc4c3P(C)(C)=O)CCCC5)n2)c(OC)cc1N1CCC(N2CCN(C)CC2)CC1

IC50 (PC-9 [2]): 599 nM
Compound: COc1cc(N2CCC(N3CCN(C)CC3)CC2)ccc1Nc1ncc(Cl)c(Nc2ccccc2P(C)(C)=O)n1 [BRIGATINIB]

IC50 (BaF3): > 1000 nM
IC50 (PC-9 [1]): > 1000 nM
Compound: CCc1cc(Nc2ncc(Br)c(Nc3cc4c5c(cccc5c3P(C)(C)=O)COC4)n2)c(OC)cc1N1CCC(N2CCN(C)CC2)CC1

IC50 (BaF3): > 1000 nM
IC50 (PC-9 [1]): > 1000 nM
Compound: CCc1cc(Nc2ncc(Br)c(Nc3ccc(C4CC4)cc3P(C)(C)=O)n2)c(OC)cc1N1CCC(N2CCN(CCS(C)(=O)=O)CC2)CC1

IC50 (BaF3): > 1000 nM
IC50 (PC-9 [1]): > 1000 nM
Compound: CCc1cc(Nc2ncc(Br)c(Nc3ccc4c(ccc5ccccc54)c3P(C)(C)=O)n2)c(OC)cc1N1CCC(N2CCN(C)CC2)CC1
